# Reference: ChEMBL document CHEMBL3734743, “Potent complement C3a receptor agonists derived from oxazole amino acids: Structure-activity relationships” (Bioorg Med Chem Lett, 2015)
# Active and inactive are the calls of the source. The calls are words filed in the database; no cut-off is given here.
# Key:
# [1] = biological target: T1, C5a anaphylatoxin chemotactic receptor 1 (Homo sapiens) (UniProt P21730); assay: Displacement of [125I]-C5a from C5aR in human MDM cells at 20 uM after 60 mins by microbeta scintillation counting analysis; format: cell-based
# T1 sequence (whole entry): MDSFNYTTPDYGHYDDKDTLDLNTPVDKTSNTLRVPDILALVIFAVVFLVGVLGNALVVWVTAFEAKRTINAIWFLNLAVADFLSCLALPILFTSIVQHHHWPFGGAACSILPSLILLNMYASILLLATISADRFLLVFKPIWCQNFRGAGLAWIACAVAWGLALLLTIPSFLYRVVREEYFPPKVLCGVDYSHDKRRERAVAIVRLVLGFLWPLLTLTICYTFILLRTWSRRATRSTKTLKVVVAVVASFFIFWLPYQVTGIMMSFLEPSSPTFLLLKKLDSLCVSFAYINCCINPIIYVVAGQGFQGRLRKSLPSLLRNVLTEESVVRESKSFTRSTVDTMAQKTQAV
# [2] = biological target: T2, C3a anaphylatoxin chemotactic receptor (Homo sapiens) (UniProt Q16581); assay: Displacement of [125I]-C3a from C3aR in human MDM cells at 10 uM after 60 mins by microbeta scintillation counting analysis; format: cell-based
# T2 sequence (whole entry): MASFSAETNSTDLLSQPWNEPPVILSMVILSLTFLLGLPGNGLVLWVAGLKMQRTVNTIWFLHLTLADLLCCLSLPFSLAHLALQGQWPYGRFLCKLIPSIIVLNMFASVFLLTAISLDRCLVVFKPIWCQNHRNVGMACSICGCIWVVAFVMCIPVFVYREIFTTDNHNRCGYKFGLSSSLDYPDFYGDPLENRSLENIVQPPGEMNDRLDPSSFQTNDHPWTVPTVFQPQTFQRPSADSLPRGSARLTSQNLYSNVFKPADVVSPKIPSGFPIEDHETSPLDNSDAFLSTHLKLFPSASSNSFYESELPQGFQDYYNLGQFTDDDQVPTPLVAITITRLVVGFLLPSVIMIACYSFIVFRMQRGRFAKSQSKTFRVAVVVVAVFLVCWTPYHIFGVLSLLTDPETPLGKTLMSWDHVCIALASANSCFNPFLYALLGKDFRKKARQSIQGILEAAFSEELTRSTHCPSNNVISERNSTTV
# [3] = biological target: T3, C3a anaphylatoxin chemotactic receptor (Homo sapiens, UniProt Q16581); assay: Displacement of [125I]-C3a from C3aR in human MDM cells after 60 mins by microbeta scintillation counting analysis; format: cell-based
# T3 sequence (Q16581 whole entry): T2 sequence (whole entry)
# [4] = biological target: T2, C3a anaphylatoxin chemotactic receptor (Homo sapiens); assay: Agonist activity at C3aR in human MDM cells assessed as intracellular calcium efflux at 1 uM measured for 60 secs by fluorescence based receptor desensitization assay; format: functional, cell-based
# [5] = biological target: T2, C3a anaphylatoxin chemotactic receptor (Homo sapiens); assay: Agonist activity at C3aR in human MDM cells assessed as induction of intracellular Ca2+ release measured for 60 secs in presence of C3a antagonist SB290157 by fluorescence assay; format: functional, cell-based
# [6] = biological target: T3, C3a anaphylatoxin chemotactic receptor; assay: Agonist activity at C3aR in human MDM cells assessed as inhibition of C3a-induced Ca2+ response measured for 60 secs by fluorescence assay; format: functional, cell-based
Structure (SMILES),inhibition [1],inhibition [2],IC50 [3] [nM],Activity [4],Activity [5],EC50 [6] [nM]
CC(C)C[C@H](NC(=O)OC(C)(C)C)c1nc(C(=O)N[C@@H](CCCNC(N)=O)C(=O)O)co1,inactive,inactive,–,–,–,–
CC[C@H](C)[C@H](NC(=O)c1cncc(Br)c1)c1nc(C(=O)NCCCCNC(=N)N)c(C)o1,inactive,inactive,–,–,–,–
Cc1oc([C@H](CC(C)C)NC(=O)OC(C)(C)C)nc1C(=O)N[C@@H](CCCNC(=N)N)C(=O)O,inactive,–,14,inactive,inactive,45
CC(C)C[C@H](NC(=O)c1c[nH]c2ccccc12)c1nc(C(=O)N[C@@H](CCCNC(=N)N)C(=O)O)co1,inactive,–,–,inactive,inactive,–
CC[C@H](C)[C@H](NC(=O)c1ccc2ccccc2n1)c1nc(C(=O)N[C@@H](CCCNC(=N)N)C(=O)O)co1,inactive,–,123,inactive,–,41
